Target: T1, Cytophaga hutchinsonii polyphosphate kinase (ChPPK) mutant A79G/S106C/I108F/L285P (parent SEQ ID NO: 2) (Cytophaga hutchinsonii, UniProt A0A6N4SMB5, A79G/I108F/L285P/S106C)
T1 sequence (A0A6N4SMB5 with tags, fused parts or gaps A79G/S106C/I108F/L285P): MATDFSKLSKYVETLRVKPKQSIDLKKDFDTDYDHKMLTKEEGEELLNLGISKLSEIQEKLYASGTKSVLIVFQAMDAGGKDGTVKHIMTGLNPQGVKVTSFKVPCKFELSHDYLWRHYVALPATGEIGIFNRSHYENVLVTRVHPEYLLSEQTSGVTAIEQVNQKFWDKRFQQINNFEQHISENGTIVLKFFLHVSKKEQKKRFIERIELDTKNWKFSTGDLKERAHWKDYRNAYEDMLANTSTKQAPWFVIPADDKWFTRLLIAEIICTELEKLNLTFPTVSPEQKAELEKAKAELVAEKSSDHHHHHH
Assay: Kinetic parameters of mutant ChPPK/A79G/S106C/I108F/L285P (pure enzyme, pseudo-one-substrate kinetic model, ATP by HPLC)
Format: biochemical
Details: mutant versus wild-type; substrate AMP or PPA
Experimental: (2) Pure enzyme: 5 mL of the crude enzyme solution was diluted with 40 mL of potassium phosphate buffer (20 mM, pH 7.2), and then applied to a HisTrap HP purification column of GE Healthcare (10 mL column, pre-washed with a pH 7.2, 20 mM potassium phosphate buffer containing 500 mM NaCl). The resulting purification column was eluted with 100 mL of washing buffer (a pH7.2, 20 mM potassium phosphate buffer containing 500 mM sodium chloride and 50 mM imidazole) at a rate of 0.5 mL/min to remove the absorbed protein impurities, and then eluted with an elution buffer (a pH7.2, 20 mM potassium phosphate buffer containing 500 mM sodium chloride and 50 mM imidazole) at a speed of 0.5 mL/min to collect an elution solution containing the target protein. Then the elution solution containing the target protein was dialyzed in a dialysis bag (the MWCO of the dialysis bag was 14 KDa) with a pH7.2 of 20 mM potassium phosphate buffer for 48h, and the retentate was taken as pure enzyme. The concentration of the pure enzyme was determined by Beyotime BCA Protein Assay Kit(P0012), and the amount of the pure enzyme used in the following examples was calculated by protein content.
0.4 mg of the crude enzyme solution prepared by the method in Example 2 or 0.05 mg of the pure enzyme, polyphosphoric acid (PPA) at a final concentration of 1.6 g/L, adenosine phosphate (AMP) at a final concentration of 2.25 mM, and MgCl2 at a final concentration of 10 mM were added to 10 mL of 50 mM potassium phosphate buffer (pH 7.5). The reaction solution was incubated at 37° C. for 5 min, and then 10 mL of 0.2 M phosphoric acid solution was added to terminate the reaction. The ATP content in the solution was determined by HPLC method. […]
The wild-type Ecoli.BL21(DE3)-ChPPK constructed by the method of Example 1 and the engineered strain Ecoli.BL21(DE3)-ChPPK/A79G/S106C/I108F/L285P constructed by the method of Example 6 were used to prepare pure enzymes by the method of Example 2. Km and Kcat were calculated by pseudo-one-substrate kinetic model. […]

`Nc1ncnc2c1ncn2[C@@H]1O[C@H](COP(=O)(O)O)[C@@H](O)[C@H]1O` [AMP, adenosine phosphate] was tested, and the “Km, wild-type compared with mutant (in words)” value was “similar”, the “catalytic efficiency (kcat/Km) of the mutant, fold higher than wild-type ChPPK” value was 16 fold and the “turnover number (kcat value), mutant compared with wild-type (in words)” value was “increased”.
